{"source": "patent US10738028B2", "about": "“Spiro three-membered ring, spiro five-membered ring peptide deformylase inhibitor and use thereof in antibacteria and anti-tumor” (priority 2016, dated 2020)", "type_in_all_cases": "cell-based", "key": {"[1]": {"test_system": "Enterococcus faecalis (EFA)", "assay": "MIC, two-fold agar dilution (CLSI), clinical isolates", "from_the_text": "(§1) 1. The invention adopts the two-fold agar dilution method recommended by the operating procedure of antimicrobial susceptibility testing set by American Clinical and Laboratory Standards Institute (CLSI) to determine the Minimum Inhibitory Concentration (MIC) of the test samples against the tested strains."}, "[2]": {"test_system": "Enterococcus faecium (EFM)", "assay": "MIC, two-fold agar dilution (CLSI), clinical isolates", "from_the_text": "as §1"}, "[3]": {"test_system": "Escherichia coli (including ESBLs, non-ESBLs)", "assay": "MIC, two-fold agar dilution (CLSI), clinical isolates", "from_the_text": "as §1"}, "[4]": {"test_system": "Moraxella catarrhalis (BCA)", "assay": "MIC, two-fold agar dilution (CLSI), clinical isolates", "from_the_text": "as §1"}, "[5]": {"test_system": "Streptococcus pneoumoniae (SPN)", "assay": "MIC, two-fold agar dilution (CLSI), clinical isolates", "from_the_text": "as §1"}, "[6]": {"test_system": "methicillin-resistant Staphylococcus aureus (MRSA)", "assay": "MIC, two-fold agar dilution (CLSI), clinical isolates", "from_the_text": "as §1"}, "[7]": {"test_system": "methicillin-resistant Staphylococcus epidermidis (MRSE)", "assay": "MIC, two-fold agar dilution (CLSI), clinical isolates", "from_the_text": "as §1"}, "[8]": {"test_system": "methicillin-sensitive Staphylococcus aureus (MSSA)", "assay": "MIC, two-fold agar dilution (CLSI), clinical isolates", "from_the_text": "as §1"}, "[9]": {"test_system": "methicillin-sensitive Staphylococcus epidermidis (MSSE)", "assay": "MIC, two-fold agar dilution (CLSI), clinical isolates", "from_the_text": "as §1"}, "[10]": {"test_system": "HCT-116 colorectal cancer cell line", "assay": "CCK-8 proliferation inhibition", "settings": "Homo sapiens, HCT-116, 72 h, concentration of 30 μM; 72 hours; CCK-8; read-out: HCT116 inhibition rate/%", "outline": "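2000 cells/well, McCoy's 5A + 10% newborn bovine serum; overnight attach, 37° C./5% CO2. Cpd from DMSO stock diluted in medium, 72 h. Readout: CCK-8 (1:10). Ctrl 1‰ DMSO.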"}}}
{"compound": "O=CN(O)C[C@@H](CC1CCCC1)C(=O)N1CC2(CC2)C[C@H]1C(=O)Nc1nncs1", "note": "[Example 41, (S)-5-((R)-3-cyclopentyl-2-((N-hydroxyformamido)methyl)propionyl)-N-(1,3,4-thiadiazol-2-yl)-5-azaspiro[2.4]heptane-6-carboxamide]", "values": [{"measurement": "Anti-bacterial activity (MIC), strain EFA 15-1", "setting": "[1]; clinical isolate EFA 15-1", "value": 4, "unit": "µg/mL"}, {"measurement": "Anti-bacterial activity (MIC), strain EFA 15-2", "setting": "[1]; clinical isolate EFA 15-2", "value": 4, "unit": "µg/mL"}, {"measurement": "Anti-bacterial activity (MIC), strain EFA 15-3", "setting": "[1]; clinical isolate EFA 15-3", "value": 1, "unit": "µg/mL"}, {"measurement": "Anti-bacterial activity (MIC), strain EFA 15-4", "setting": "[1]; clinical isolate EFA 15-4", "value": 4, "unit": "µg/mL"}, {"measurement": "Anti-bacterial activity (MIC), strain EFA 15-5", "setting": "[1]; clinical isolate EFA 15-5", "value": 4, "unit": "µg/mL"}, {"measurement": "Anti-bacterial activity (MIC), strain EFA 15-6", "setting": "[1]; clinical isolate EFA 15-6", "value": 4, "unit": "µg/mL"}, {"measurement": "Anti-bacterial activity (MIC), strain EFA 15-9", "setting": "[1]; clinical isolate EFA 15-9", "value": 4, "unit": "µg/mL"}, {"measurement": "Anti-bacterial activity (MIC), strain EFM 15-1", "setting": "[2]; clinical isolate EFM 15-1", "value": 1, "unit": "µg/mL"}, {"measurement": "Anti-bacterial activity (MIC), strain EFM 15-2", "setting": "[2]; clinical isolate EFM 15-2", "value": 2, "unit": "µg/mL"}, {"measurement": "Anti-bacterial activity (MIC), strain EFM 15-3", "setting": "[2]; clinical isolate EFM 15-3", "value": 0.25, "unit": "µg/mL"}, {"measurement": "Anti-bacterial activity (MIC), strain EFM 15-4", "setting": "[2]; clinical isolate EFM 15-4", "value": 1, "unit": "µg/mL"}, {"measurement": "Anti-bacterial activity (MIC), strain EFM 15-5", "setting": "[2]; clinical isolate EFM 15-5", "value": 1, "unit": "µg/mL"}, {"measurement": "Anti-bacterial activity (MIC), strain EFM 15-6", "setting": "[2]; clinical isolate EFM 15-6", "value": 2, "unit": "µg/mL"}, {"measurement": "Anti-bacterial activity (MIC), strain ECO+ 15-1", "setting": "[3]; clinical isolate ECO+ 15-1", "value": 32, "unit": "µg/mL"}, {"measurement": "Anti-bacterial activity (MIC), strain ECO+ 15-2", "setting": "[3]; clinical isolate ECO+ 15-2", "value": 32, "unit": "µg/mL"}, {"measurement": "Anti-bacterial activity (MIC), strain ECO+ 15-3", "setting": "[3]; clinical isolate ECO+ 15-3", "value": 32, "unit": "µg/mL"}, {"measurement": "Anti-bacterial activity (MIC), strain ECO+ 15-4", "setting": "[3]; clinical isolate ECO+ 15-4", "value": 32, "unit": "µg/mL"}, {"measurement": "Anti-bacterial activity (MIC), strain ECO− 15-1", "setting": "[3]; clinical isolate ECO− 15-1", "value": 32, "unit": "µg/mL"}, {"measurement": "Anti-bacterial activity (MIC), strain ECO− 15-2", "setting": "[3]; clinical isolate ECO− 15-2", "value": 32, "unit": "µg/mL"}, {"measurement": "Anti-bacterial activity (MIC), strain ECO− 15-3", "setting": "[3]; clinical isolate ECO− 15-3", "value": 32, "unit": "µg/mL"}, {"measurement": "Anti-bacterial activity (MIC), strain ECO− 15-4", "setting": "[3]; clinical isolate ECO− 15-4", "value": 32, "unit": "µg/mL"}, {"measurement": "Anti-bacterial activity (MIC), strain BCA 14-1", "setting": "[4]; clinical isolate BCA 14-1", "value": 1, "unit": "µg/mL"}, {"measurement": "Anti-bacterial activity (MIC), strain BCA 14-4", "setting": "[4]; clinical isolate BCA 14-4", "value": 2, "unit": "µg/mL"}, {"measurement": "Anti-bacterial activity (MIC), strain BCA 14-5", "setting": "[4]; clinical isolate BCA 14-5", "value": 0.25, "unit": "µg/mL"}, {"measurement": "Anti-bacterial activity (MIC), strain BCA 14-6", "setting": "[4]; clinical isolate BCA 14-6", "value": 4, "unit": "µg/mL"}, {"measurement": "Anti-bacterial activity (MIC), strain BCA 14-7", "setting": "[4]; clinical isolate BCA 14-7", "value": 1, "unit": "µg/mL"}, {"measurement": "Anti-bacterial activity (MIC), strain BCA 14-8", "setting": "[4]; clinical isolate BCA 14-8", "value": 4, "unit": "µg/mL"}, {"measurement": "Anti-bacterial activity (MIC), strain BCA 14-10", "setting": "[4]; clinical isolate BCA 14-10", "value": 0.5, "unit": "µg/mL"}, {"measurement": "Anti-bacterial activity (MIC), strain SPN 16-2", "setting": "[5]; clinical isolate SPN 16-2", "value": 0.25, "unit": "µg/mL"}, {"measurement": "Anti-bacterial activity (MIC), strain SPN 16-4", "setting": "[5]; clinical isolate SPN 16-4", "value": 4, "unit": "µg/mL"}, {"measurement": "Anti-bacterial activity (MIC), strain MRSA 15-1", "setting": "[6]; clinical isolate MRSA 15-1", "value": 0.5, "unit": "µg/mL"}, {"measurement": "Anti-bacterial activity (MIC), strain MRSA 15-2", "setting": "[6]; clinical isolate MRSA 15-2", "value": 1, "unit": "µg/mL"}, {"measurement": "Anti-bacterial activity (MIC), strain MRSA 15-3", "setting": "[6]; clinical isolate MRSA 15-3", "value": 0.5, "unit": "µg/mL"}, {"measurement": "Anti-bacterial activity (MIC), strain MRSA 15-4", "setting": "[6]; clinical isolate MRSA 15-4", "value": 1, "unit": "µg/mL"}, {"measurement": "Anti-bacterial activity (MIC), strain MRSE 15-1", "setting": "[7]; clinical isolate MRSE 15-1", "value": 0.5, "unit": "µg/mL"}, {"measurement": "Anti-bacterial activity (MIC), strain MRSE 15-2", "setting": "[7]; clinical isolate MRSE 15-2", "value": 1, "unit": "µg/mL"}, {"measurement": "Anti-bacterial activity (MIC), strain MRSE 15-3", "setting": "[7]; clinical isolate MRSE 15-3", "value": 1, "unit": "µg/mL"}, {"measurement": "Anti-bacterial activity (MIC), strain MRSE 15-7", "setting": "[7]; clinical isolate MRSE 15-7", "value": 1, "unit": "µg/mL"}, {"measurement": "Anti-bacterial activity (MIC), strain MSSA 15-3", "setting": "[8]; clinical isolate MSSA 15-3", "value": 1, "unit": "µg/mL"}, {"measurement": "Anti-bacterial activity (MIC), strain MSSA 15-4", "setting": "[8]; clinical isolate MSSA 15-4", "value": 0.5, "unit": "µg/mL"}, {"measurement": "Anti-bacterial activity (MIC), strain MSSA 15-5", "setting": "[8]; clinical isolate MSSA 15-5", "value": 0.5, "unit": "µg/mL"}, {"measurement": "Anti-bacterial activity (MIC), strain MSSA 15-6", "setting": "[8]; clinical isolate MSSA 15-6", "value": 0.5, "unit": "µg/mL"}, {"measurement": "Anti-bacterial activity (MIC), strain MSSE 15-3", "setting": "[9]; clinical isolate MSSE 15-3", "value": 1, "unit": "µg/mL"}, {"measurement": "Anti-bacterial activity (MIC), strain MSSE 15-4", "setting": "[9]; clinical isolate MSSE 15-4", "value": 1, "unit": "µg/mL"}, {"measurement": "Anti-bacterial activity (MIC), strain MSSE 15-5", "setting": "[9]; clinical isolate MSSE 15-5", "value": 1, "unit": "µg/mL"}, {"measurement": "Anti-bacterial activity (MIC), strain MSSE 15-6", "setting": "[9]; clinical isolate MSSE 15-6", "value": 1, "unit": "µg/mL"}, {"measurement": "inhibition at 30 µM", "setting": "[10]", "value": 24, "unit": "%"}]}
